Experimental data: paper PMC5423902, “CXCL9-Derived Peptides Differentially Inhibit Neutrophil Migration In Vivo through Interference with Glycosaminoglycan Interactions” (Frontiers in Immunology, 2017)
Values belong to the compound of their own block, whether it stands above or below them. Peptide text beside a SMILES is read from it. * marks the point of attachment. 5TAMRA = CN(C)c1ccc2c(c1)Oc1cc(N(C)C)ccc1C21OC(=O)c2cc(C(=O)*)ccc21

Legend:
[1] = tested on: CXCL8(1-77) binding to heparin; assay: Competition with CXCL8 for binding to immobilized heparin (ELISA-like); set-up: species or system human; details: heparin-coated plates, n ≥ 4
Experimental: (§1) The ability of the COOH-terminal peptides of CXCL9 and CXCL4 to compete for GAG binding with the inflammatory chemokines CXCL8 and CXCL1 was evaluated on heparin-binding plates [BD Biosciences or produced by Jason Whittle (School of Engineering/Future Industries Institute, University of South Australia, Australia)] ([42], [47]). In brief, GAGs (heparin, HS, and CS; Iduron; 25 µg/ml) were coated overnight at room temperature. Dilutions of COOH-terminal CXCL9 or CXCL4 peptide combined with recombinant human CXCL8(1-77) or recombinant murine CXCL1(1-72) (Peprotech, Rocky Hill, NJ, USA) were added in duplicate and incubated for 2 h at 37°C. Subsequently, bound CXCL8 or CXCL1 was detected with biotinylated polyclonal rabbit anti-human CXCL8 or biotinylated polyclonal goat anti-mouse CXCL1 (Peprotech) and horse radish peroxidase-labeled streptavidin. Finally, the peroxidase activity was quantified at 450 nm.
(§2) Figure 3 CXCL9(74-93) competes with CXCL8 for binding to heparin, heparan sulfate (HS), and cellular glycosaminoglycans (GAGs). Competition between CXCL8 and COOH-terminal CXCL9 or CXCL4 peptides for binding to immobilized heparin (A) or HS (B) and to Chinese hamster ovary (CHO) cells (C) was performed. […] Bound CXCL8 was detected with biotinylated anti-human CXCL8 antibodies. (C) Binding of NH2-terminally biotinylated CXCL8(1-77) (300 nM) to CHO cells in the presence or absence of an excess CXCL9 peptide was detected by streptavidin-allophycocyanin and flow cytometry. The mean (± SEM) percentage inhibition of binding of CXCL8(1-77) to heparin, HS or cellular GAGs is indicated on the y-axis (n ≥ 4). Statistical comparison of the different competitors with CXCL9(74–103) was performed using the Mann–Whitney U-test (*p < 0.05).

[2] = tested on: cellular GAGs on CHO cells; details: binds dose-dependently to GAGs on CHO cells; cited from earlier work
[3] = tested on: CXCL8(1-77) binding to heparan sulfate (HS); assay: Competition with CXCL8 for binding to immobilized HS (ELISA-like); set-up: species or system human; details: CXCL8(1-77) 0-300 nM, n ≥ 4, Figure 3B
Experimental: as §1, §2

[4] = tested on: CXCL8-induced neutrophil migration; assay: CXCL8-induced neutrophil migration to the peritoneal cavity; format: in vivo, mouse (NMRI); details: 108 µg peptide i.p.; data not shown
Experimental: In vivo neutrophil extravasation to the peritoneal or the knee cavity was examined, respectively, by intraperitoneal or intra-articular injection, of endotoxin-free recombinant CXCL8(1-77) (PeproTech) or vehicle (PBS) in female NMRI or C57BL/6 mice, as described previously ([42], [48]). Simultaneously, synthetic CXCL9 peptide was co-injected either intraperitoneally or injected intravenously. After 2 h (peritoneal cavity) or 3 h (knee cavity), mice were sacrificed. The peritoneal cavity was washed with saline enriched with 2% FCS and 20 U/ml heparin and total leukocyte counts were determined. For the preparation of cytospins, 10^5 cells were used and absolute number and percentage of neutrophils in the lavages were determined in duplicate independently by two researchers by differential microscopic counting. The cells present in the tibiofemoral articulation were harvested by washing the cavity with 10 µl of 3% (w/v) bovine serum albumin in PBS and diluted in 90 µl of 3% (w/v) bovine serum albumin in PBS. The number of total leukocytes was determined by counting leukocytes in a Neubauer chamber after staining with Turk’s solution. Differential counts were obtained from cytospin preparations by evaluating the percentage of each leukocyte type on a slide stained with May-Grunwald-Giemsa solution.
Figure 4 The COOH-terminal peptides of CXCL9 inhibit CXCL8-induced neutrophil migration to the peritoneal cavity. CXCL8(1-77) was injected into the peritoneal cavity of NMRI mice (n ≥ 5) simultaneously with an intraperitoneal (A) or intravenous (B,C) injection of CXCL9(74-103) or CXCL9(74–93). The number of neutrophils in the peritoneal cavity, 2 h post injection, were evaluated by differentially counting the leukocyte subtypes on Hemacolor-stained cytospins. The neutrophil counts are shown for every individual mouse, and the horizontal lines denote the median percentage. To detect statistically significant differences, the Mann–Whitney U-test was carried out (*p < 0.05; **p < 0.01; ***p < 0.005).

[5] = tested on: CXCL1(1-72) binding to heparan sulfate (HS); assay: Competition with CXCL1 for binding to immobilized HS; set-up: species or system murine; details: n ≥ 3; Figure 6A
Experimental: as §1
Competition between CXCL1 and COOH-terminal CXCL9 peptides for binding to immobilized heparan sulfate (HS) (A) and chondroitin sulfate (CS) (B) was performed. […] Bound CXCL1 was detected with biotinylated polyclonal goat anti-mouse CXCL1 antibodies. The mean (± SEM) percentage inhibition of CXCL1 binding to GAGs is indicated on the y-axis (n ≥ 3). Statistical comparison of the different competitors with CXCL9(74–103) was performed using the Mann–Whitney U-test.

[6] = tested on: CXCL8-induced neutrophil migration; details: cited from earlier work
[7] = tested on: HS expression on CHO cells; assay: HS expression on CHO cells after NaClO3 treatment, flow cytometry; format: cell-based, Chinese hamster; details: 100 mM NaClO3, 24 h; anti-HS antibody; data not shown
Experimental: Chinese hamster ovary (CHO) cells were a gift from M. Parmentier (ULB, Brussels, Belgium) and were cultured in Ham’s F-12 medium (with L-glutamine; Lonza, Belgium) supplemented with 10% fetal calf serum (FCS) and 0.8% G418 (Geneticin®; Life Technologies), as described ([44]). To inhibit sulfation of cellular GAGs, CHO cells were cultured in the presence of 100 mM sodium chlorate (NaClO3) for 24 h as previously described ([42]).
Binding of biotinylated CXCL9(74-103) and CXCL9(74-93) to CHO cells was assessed by flow cytometry as recently described ([42]). Briefly, cells were detached with phosphate-buffered saline (PBS) with 0.02% ethylenediaminetetraacetic acid (EDTA) and incubated with NH2-terminally biotinylated peptides. Subsequently, cells were incubated with streptavidin-allophycocyanin (BD Biosciences, San Jose, CA, USA) and analyzed by flow cytometry (FACSCalibur, BD Biosciences). To confirm inhibition of sulfation of cellular GAGs, part of the cells were stained with a mouse monoclonal anti-human HS antibody (Immunosource, Schilde, Belgium) and a secondary phycoerythrin-labeled goat anti-mouse antibody (BD Biosciences). Finally, cells were analyzed by flow cytometry. Analogously, binding of 100 nM biotinylated CXCL8 in the presence or absence of CXCL9(74-103) or CXCL9(74-93) was compared on CHO cells.

[8] = Plasma level of intravenously injected fluorescent CXCL9(74-103); format: in vivo, mouse; details: spectrofluorometric
From the text: Intravenously injected fluorescent CXCL9(74-103) was detected in plasma after different time intervals by spectrofluorometric analysis and quantified against murine plasma spiked with known concentrations of the fluorescent peptide.

molar excess over CXCL8 giving 50% reduction of CXCL8 binding to heparin ([1]; CXCL8(1-77) 0-300 nM, 2 h at 37°C, anti-CXCL8 detection, 450 nm, Figure 3A): more than 100 fold molar excess
Compound: 47NGRKICLDLQAPLYKKIIKKLLES70 [CXCL4(47-70), COOH-terminal peptide of CXCL4, reference compound]
competition with CXCL8 for heparin binding (relative potency) ([1]; Figure 3): less potent competitor of CXCL8 binding than the CXCL9 peptides
affinity for GAGs on CHO cells relative to CXCL9(74-103) [2]: about fivefold lower affinity than CXCL9(74-103)

inhibition of CXCL8 binding on HS-coated plates [3]: poorly competing
Compound: 86KKVLKVRKSQRSRQKKTT103 [CXCL9(86-103), COOH-terminal peptide of CXCL9]
inhibition of CXCL8-induced neutrophil migration to peritoneal cavity [4]: did not inhibit CXCL8-induced neutrophil migration
competition for CXCL1 binding to HS [5]: not able to inhibit the interaction between CXCL1 and HS
inhibition of chemotactic activity of CXCL8 in vivo [6]: unable to inhibit chemotactic activity of CXCL8 in vivo

Compound: [Na+].[O-][Cl+2]([O-])[O-] [NaClO3, sodium chlorate]
reduction of HS expression on CHO cells [7]: 71.4%

Compound: CC(C)C[C@H](NC(=O)[C@@H](NC(=O)[C@H](CCCCN)NC(=O)[C@H](CCCCN)NC(=O)[C@H](CCCCN)NC(=O)[C@H](CCC(N)=O)NC(=O)[C@H](Cc1c[nH]cn1)NC(=O)[C@H](CCCCN)NC(=O)[C@H](CCCCN)NC(=O)CNC(=O)[C@H](CC(N)=O)NC(=O)[C@H](CCCCN)NC(=O)[C@H](CCC(N)=O)NC(=O)[C@H](CCCCN)NC(=O)[C@H](CCCCN)NC(=O)[C@H](CCCCN)NC(=O)c1ccc2c(c1)C(=O)OC21c2ccc(N(C)C)cc2Oc2cc(N(C)C)ccc21)C(C)C)C(=O)N[C@@H](CCCCN)C(=O)N[C@H](C(=O)N[C@@H](CCCNC(=N)N)C(=O)N[C@@H](CCCCN)C(=O)N[C@@H](CO)C(=O)N[C@@H](CCC(N)=O)C(=O)N[C@@H](CCCNC(=N)N)C(=O)N[C@@H](CO)C(=O)N[C@@H](CCCNC(=N)N)C(=O)N[C@@H](CCC(N)=O)C(=O)N[C@@H](CCCCN)C(=O)N[C@@H](CCCCN)C(=O)N[C@H](C(=O)N[C@H](C(=O)O)[C@@H](C)O)[C@@H](C)O)C(C)C [TAMRA-CXCL9(74-103)] (5TAMRA-KKKQKNGKKHQKKKVLKVRKSQRSRQKKTT-OH)
fraction of injected amount detected in plasma ([8]; 5 min after i.v. injection, assuming a blood volume of 3 ml): 3%
level at 5 min ([8]; mouse, plasma, iv, 5 min after i.v. injection, read-out: plasma concentration): 2000 ng/mL
level at 1 h ([8]; mouse, plasma, iv, 1 h after i.v. injection, no circulating peptide detected, read-out: plasma concentration): < 240 ng/mL
